Legend:
BALB/C mice [1] = experiment: Local tolerance determination by footpad injection; assay type: in vivo; conditions: cirRNA (SEQ ID NO: 1) LNP, 0.175 mg*kg-1 subcutaneous into the footpad, 24 hours post minus prior
Description: 6-8 week old, female BALB/C mice were injected with 0.175 mg*kg-1 RNA LNPs by subcutaneous injection into the footpad. Prior to, and 24 hours post injections, injected footpad thickness was determined by a caliper.

RAW 264.7 cells [2] = experiment: In vitro expression of firefly-luciferase, RAW 264.7; assay type: cell-based
In short: (§1)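 Transfection used 100 ng/mL luciferase-encoding RNA-LNPs; activity in lysates was determined at 72 h.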

[3] = tested on: Aspartate Aminotransferase (AST); experiment: Liver enzyme elevation in serum, AST; assay type: in vivo; conditions: cirRNA (SEQ ID NO: 1) LNPs, BALB/C mice, intravenous 0.5 MPK
Description: (§2) 6-8 week old, female BALB/C mice were injected with 0.5 mg*kg-1 of RNA LNPs by intravenous injection. At 2 and 24 hours post injection, animals were bled and sera concentrations of Alanine Aminotransferase (ALT) and Aspartate Aminotransferase (AST) were determined by a blood chemistry analyzer.

Hep G2 cells [4] = experiment: In vitro expression of firefly-luciferase, Hep G2; assay type: cell-based
In short: as §1

[5] = tested on: Alanine Aminotransferase (ALT); experiment: Liver enzyme elevation in serum, ALT; assay type: in vivo; conditions: cirRNA (SEQ ID NO: 1) LNPs, BALB/C mice, intravenous 0.5 MPK
Description: as §2

[6] = LNP zeta potential (Zetasizer); assay type: physicochemical
In short: (§3)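 LNPs of ionizable lipid/DSPC/cholesterol/DMG-PEG 2000 (50:10:38.5:1.5) made by microfluidic mixing of luciferase circRNA or mRNA in pH 4.5 acetate with lipids in ethanol (3:1, 12 ml/min), ionizable lipid:nucleotide 15 or 6, then dialyzed against PBS. Size, PDI (DLS) and zeta potential on Zetasizer; encapsulation by Ribogreen ± Triton X-100.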

[7] = LNP size and polydispersity index (PDI) by dynamic light scattering; assay type: physicochemical; conditions: for Size: in nm (unit assumed)
In short: as §3

BALB/C mice [8] = experiment: In vivo expression, whole-body luminescence (IVIS)
Description: 6-8 week old, female BALB/C mice were injected with 0.05 mg*kg-1 of RNA-LNPs encoding for firefly-luciferase by intravenous injection. At 6 hours post injection, animals were intraperitoneally injected with 15 mg/ml of Luciferin substrate and whole-body luminescence was determined by a bioluminescent in vivo imaging system (IVIS).

RAW 264.7 cells [9] = experiment: In vitro toxicity (CellTiter-Glo cell viability), RAW 264.7; assay type: cell-based;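 further: percent of untreated cells luminescence signal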
In short: (§4)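 Cells were transfected with RNA-LNPs at 1 μg/mL and, 72 hours later, viability was measured by CellTiter-Glo luminescence. Values are cell viability calculated from the luminescence signal.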

Hep G2 cells [10] = experiment: In vitro toxicity (CellTiter-Glo cell viability), Hep G2; assay type: cell-based;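 further: percent of untreated cells luminescence signal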
In short: as §4

[11] = RNA encapsulation efficacy by Quant-IT Ribogreen kit; assay type: physicochemical; conditions: for Encapsulation Efficiency %: LNP with cirRNA (SEQ ID NO: 1); for Encapsulation Efficiency: LNP with mRNA (SEQ ID NO: 2)
In short: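 Encapsulation efficacy came from Ribogreen fluorescence of LNPs compared with Triton X-100-lysed LNPs. The particles carried luciferase-encoding circular or linear RNA at an ionizable lipid:ribonucleotide ratio of 15 or 6.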

MCP-I = MCP-I cytokine elevation in serum; assay type: in vivo; conditions: cirRNA (SEQ ID NO: 1) LNPs, mice
Description: 6-8 week old, female BALB/C mice were injected with 0.5 mg*kg-1 of RNA LNPs by intravenous injection. At 2 and 24 hours post injection, animals were bled and sera concentrations of MCP-I were determined by an immunoassay (Luminex).

[12] = cirRNA (SEQ ID NO: 1) LNPs, firefly-luciferase luminescence, RAW 264.7 cells
[13] = mRNA (SEQ ID NO: 2) LNP, 100 ng/mL, 72 hours post transfection, luciferase activity
[14] = cirRNA (SEQ ID NO: 1) LNPs, firefly-luciferase luminescence, Hep G2 cells
[15] = cirRNA (SEQ ID NO: 1) LNPs, BALB/C mice
[16] = mRNA (SEQ ID NO: 2) LNP, 0.05 mg*kg-1 intravenous, 6 hours post injection
[17] = cirRNA (SEQ ID NO: 1) LNPs, RAW 264.7 cells
[18] = mRNA (SEQ ID NO: 2) LNP, 1 μg/mL, 72 hours post transfection
[19] = cirRNA (SEQ ID NO: 1) LNPs, Hep G2 cells

| SMILES | Footpad Thickness (24 h−0 h, mm) (BALB/C mice [1]) | In vitro Expression RAW (RAW 264.7 cells [2]; [12]) | In vitro Expression RAW (RAW 264.7 cells [2]; [13]) | AST in Sera (IU/L) 2 hours After 0.5 MPK Injection [3] | AST in Sera (IU/L) 24 hours After 0.5 MPK Injection [3] | In vitro Expression HepG2 (Hep G2 cells [4]; [14]) | In vitro Expression HepG2 (Hep G2 cells [4]; [13]) | ALT in Sera (IU/L) 2 hours After 0.5 MPK Injection [5] | ALT in Sera (IU/L) 24 hours After 0.5 MPK Injection [5] | Zeta (mV) ([6]; LNP with cirRNA (SEQ ID NO: 1)) | Zeta (mV) ([6]; LNP with mRNA (SEQ ID NO: 2)) | PDI ([7]; LNP with cirRNA (SEQ ID NO: 1)) | Size ([7]; LNP with cirRNA (SEQ ID NO: 1)) | PDI ([7]; LNP with mRNA (SEQ ID NO: 2)) | Size ([7]; LNP with mRNA (SEQ ID NO: 2)) | In vivo Expression (Whole Body) (BALB/C mice [8]; [15]) | In vivo Expression (Whole Body) (BALB/C mice [8]; [16]) | In vitro Viability RAW (RAW 264.7 cells [9]; [17]) | In vitro Viability RAW (RAW 264.7 cells [9]; [18]) | In vitro Viability HepG2 (Hep G2 cells [10]; [19]) | also measured |
| --- | --- | --- | --- | --- | --- | --- | --- | --- | --- | --- | --- | --- | --- | --- | --- | --- | --- | --- | --- | --- | --- |
| CCCCCCCCCC(=O)OCCCCCCCN(CCCCCCCCOC(=O)C(CCCCCC)CCCCCCCC)CCOC(=O)NCCN(C)C (centres unmarked) [Lipid 197] | 0.08 mm | 1.87E+04 | 1.19E+07 | 215.67 IU/L | 237.67 IU/L | 6.41E+05 | 2.51E+07 | 106.67 IU/L | 171.00 IU/L | 5.5 mV | 13.59 mV | 0.14 | 82.64 | 0.07142 | 113.7 | 3.04E+07 | 4.89E+08 | 0% | 0% | 88% | In vitro Viability HepG2 (Hep G2 cells [10]; [18]): 116%; Encapsulation Efficiency % [11]: 96%; Encapsulation Efficiency [11]: 79.87%; MCP-I in Sera 2 hours After 0.5 MPK Injection (MCP-I): 1958.67 pg/mL; MCP-I in Sera 24 hours After 0.5 MPK Injection (MCP-I): 122.47 pg/mL |
| CCCCC/C=C\CCOC(=O)CCCCCN(CCCCCC(=O)OCC(CCCCCCCC)CCCCCCCCCC)CCOC(=O)NCCN1CCCCC1 (centres unmarked) [Lipid 245] | 0.68 mm | 2.68E+05 | 3.81E+06 | 387.00 IU/L | 187.67 IU/L | 7.24E+05 | 4.35E+06 | 136.50 IU/L | 107.33 IU/L | −5.02 mV | 2.004 mV | 0.12 | 99.5 | 0.1109 | 108.8 | 2.99E+08 | 1.18E+08 | 94% | 89% | 88% | In vitro Viability HepG2 (Hep G2 cells [10]; [18]): 118%; Encapsulation Efficiency % [11]: 86%; Encapsulation Efficiency [11]: 85.53%; MCP-I in Sera 2 hours After 0.5 MPK Injection (MCP-I): 2543.33 pg/mL; MCP-I in Sera 24 hours After 0.5 MPK Injection (MCP-I): 342.29 pg/mL |
| CCCCC/C=C\C/C=C\CCCCCCCCN(CCCCCCCC(=O)OC(CCCCCCCC)CCCCCCCC)CCCOC(=O)NCCN(C)C [Lipid 270] | 0.65 mm | 9.33E+06 | 3.27E+06 | 477.67 IU/L | 220.00 IU/L | 9.88E+06 | 2.31E+07 | 253.00 IU/L | 79.00 IU/L | 3.201 mV | 6.102 mV | 0.258 | 66.18 | 0.1592 | 101.7 | 9.90E+07 | 3.45E+08 | 120% | 96% | 95% | In vitro Viability HepG2 (Hep G2 cells [10]; [18]): 116%; Encapsulation Efficiency % [11]: 95%; Encapsulation Efficiency [11]: 94.52%; MCP-I in Sera 2 hours After 0.5 MPK Injection (MCP-I): 4192.67 pg/mL; MCP-I in Sera 24 hours After 0.5 MPK Injection (MCP-I): 564.30 pg/mL |
| CCCCC/C=C\C/C=C\CCCCCCCCN(CCCCCCCC(=O)OC(CCCCCCCC)CCCCCCCC)CCCOC(=O)NCc1ncc[nH]1 [Lipid 271] | 0.40 mm | 1.59E+06 | 6.06E+06 | 200.67 IU/L | 231.33 IU/L | 5.51E+06 | 3.69E+06 | 128.33 IU/L | 114.67 IU/L | 0.345 mV | 0.8825 mV | 0.2068 | 98.73 | 0.1219 | 97.34 | 8.99E+07 | 8.51E+08 | 121% | 85% | 91% | In vitro Viability HepG2 (Hep G2 cells [10]; [18]): 117%; Encapsulation Efficiency % [11]: 93%; Encapsulation Efficiency [11]: 94.51%; MCP-I in Sera 2 hours After 0.5 MPK Injection (MCP-I): 1986.67 pg/mL; MCP-I in Sera 24 hours After 0.5 MPK Injection (MCP-I): 522.62 pg/mL |
| CCCCC/C=C\C/C=C\CCCCCCCCN(CCCCCCCC(=O)OC(CCCCCCCC)CCCCCCCC)CCCOC(=O)NCCCn1ccnc1 [Lipid 276] | 0.51 mm | 1.07E+06 | 8.16E+05 | 247.33 IU/L | 89.67 IU/L | 9.80E+05 | 3.01E+05 | 247.67 IU/L | 52.00 IU/L | −0.02248 mV | 0.8258 mV | 0.1464 | 64.42 | 0.07602 | 88.07 | 1.88E+08 | 1.26E+07 | 117% | 83% | 95% | In vitro Viability HepG2 (Hep G2 cells [10]; [18]): 115%; Encapsulation Efficiency % [11]: 96%; Encapsulation Efficiency [11]: 94.50%; MCP-I in Sera 2 hours After 0.5 MPK Injection (MCP-I): 1659.21 pg/mL; MCP-I in Sera 24 hours After 0.5 MPK Injection (MCP-I): 120.48 pg/mL |

From US12691070B2, “Cationic lipids and preparation method thereof” (RiboX Therapeutics HK Limited, priority 2023, dated 2026)
